# Results: ChEMBL document CHEMBL1201862, “PubChem BioAssay data set” (2004)
#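 Grown in 96-well plates, cells were treated for 48 hours with each compound at five concentrations. Insufficient inhibition: endpoint recorded as highest concentration tested. At the GI50, growth is halved.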 Activity calls are given as the source filed them. Cut-off read from the data, not from the text of the source: active = GI50 up to about 1.1 µM and inactive = higher.
# How the values were obtained:
# Assay in all cases: growth of human tumour cells (NCI), 48 h
# UACC-257 = system: UACC-257
# SK-OV-3 = system: SK-OV-3
# DMS-273 = system: DMS-273
# LOX IMVI = system: LOX IMVI
# OVCAR-8 = system: OVCAR-8
# SN12C = system: SN12C
# SW-620 = system: SW-620
# HL-60 = system: HL-60
# TK-10 = system: TK-10
# MOLT-4 = system: MOLT-4
# SR = system: SR
# LXFL 529 = system: LXFL 529
# K562 = system: K562
# 786-0 = system: 786-0
# T47D = system: T47D
# HT-29 = system: HT-29
# ACHN = system: ACHN
# OVCAR-4 = system: OVCAR-4
# CCRF-CEM = system: CCRF-CEM
# DMS-114 = system: DMS-114
SMILES,GI50 (UACC-257),GI50 (SK-OV-3),GI50 (DMS-273),GI50 (LOX IMVI),GI50 (OVCAR-8),GI50 (SN12C),GI50 (SW-620),GI50 (HL-60),GI50 (TK-10),GI50 (MOLT-4),GI50 (SR),GI50 (LXFL 529),GI50 (K562),GI50 (786-0),GI50 (T47D),GI50 (HT-29),GI50 (ACHN),GI50 (OVCAR-4),GI50 (CCRF-CEM),GI50 (DMS-114)
CC[N+]1(C)CCC(O)(c2ccccc2)C(C(=O)c2ccccc2)C1 (stereo unspecified),17.5 µM (inactive),17.3 µM (inactive),21.4 µM (inactive),15.4 µM (inactive),25.8 µM (inactive),11.6 µM (inactive),2.12 µM (inactive),4.27 µM (inactive),15.7 µM (inactive),3.04 µM (inactive),5.43 µM (inactive),10 µM (inactive),2.11 µM (inactive),5.89 µM (inactive),16.9 µM (inactive),12.5 µM (inactive),10.1 µM (inactive),11.8 µM (inactive),2.04 µM (inactive),20.2 µM (inactive)
CC(=O)Oc1ccc(O)c2c1CCCC2,39.9 µM (inactive),46.7 µM (inactive),> 46.1 µM (inactive),19.4 µM (inactive),18 µM (inactive),> 45.4 µM (inactive),20.8 µM (inactive),3.66 µM (inactive),21.4 µM (inactive),12.1 µM (inactive),2.82 µM (inactive),16.3 µM (inactive),22.2 µM (inactive),> 100 µM (inactive),,35.7 µM (inactive),15.2 µM (inactive),19 µM (inactive),10.2 µM (inactive),30.2 µM (inactive)
COC(=O)N/N=C/c1oc(-c2ccccc2)c(-c2ccccc2)c1[N+](=O)[O-],> 100 µM (inactive),> 100 µM (inactive),> 100 µM (inactive),> 100 µM (inactive),> 100 µM (inactive),> 100 µM (inactive),> 100 µM (inactive),> 100 µM (inactive),> 100 µM (inactive),> 100 µM (inactive),> 100 µM (inactive),> 100 µM (inactive),> 100 µM (inactive),> 100 µM (inactive),,> 100 µM (inactive),> 100 µM (inactive),> 100 µM (inactive),,> 100 µM (inactive)
C=C1C(=O)C=C2C=C3C(=O)C(C)(C)C[C@]3(O)C12C (stereo partly specified),2.93 µM (inactive),19.3 µM (inactive),5.92 µM (inactive),5.14 µM (inactive),8.57 µM (inactive),9.4 µM (inactive),0.968 µM (active),0.497 µM (active),1.84 µM (inactive),0.57 µM (active),0.452 µM (active),1.26 µM (inactive),0.684 µM (active),1.81 µM (inactive),2.15 µM (inactive),3.27 µM (inactive),2.23 µM (inactive),3.43 µM (inactive),0.131 µM (active),1.1 µM (active)
COC1=CC(C2c3cc4c(cc3[C@@H](Nc3ccc([N+](=O)[O-])cc3)C3COC(=O)[C@H]23)OCO4)=CC(=O)C1=O (stereo partly specified),16.1 µM (inactive),2.48 µM (inactive),0.697 µM (active),2.15 µM (inactive),4.25 µM (inactive),2 µM (inactive),5.31 µM (inactive),0.982 µM (active),8.41 µM (inactive),0.217 µM (active),0.179 µM (active),16.4 µM (inactive),6.22 µM (inactive),1.83 µM (inactive),,7.21 µM (inactive),0.912 µM (active),59.3 µM (inactive),1.06 µM (active),2.57 µM (inactive)
